Laboratory results published in publication PMC5483587 (Frontiers in Microbiology, 2017).

Tested on: T1, LkAlt1
T1 construct: ORF amplified from genomic DNA into pET-28a(+) (NheI/XhoI), His-tagged, E. coli Rosetta2(DE3), Ni-NTA; tag removal not mentioned; about 50 kDa on SDS-PAGE
Test: initial velocities at […] nm (lactate dehydrogenase/NADH coupled), global ping-pong fit
Format: biochemical, Lachancea kluyveri
Conditions: alanine varied 1-20 mM, α-ketoglutarate 0.05-1.50 mM; Tris-HCl about pH 7, 25°C; pyridoxal 5'-phosphate; ka/kb assigned to substrates by concentration ranges and text

ka [mM] | Km [µM] | SMILES
4.88 |  | C[C@H](N)C(=O)O [alanine]
 | 220 | O=C(O)CCC(=O)C(=O)O [α-ketoglutarate]
